The test system of the assay is T1, voltage-gated Na+ (NaV) channel.
T1 construct: native channels of pituitary GH3 cells, isoform not resolved
The assay is described as follows: whole-cell patch clamp of native late INa in GH3 cells. Type of assay: cell-based.

Experimental findings from publication PMC8998350, “The Evidence for Effective Inhibition of INa Produced by Mirogabalin ((1R,5S,6S)-6-(aminomethyl)-3-ethyl-bicyclo [3.2.0] hept-3-ene-6-acetic acid), a Known Blocker of CaV Channels” (International Journal of Molecular Sciences, 2022) are described below.

The IC50 is the concentration that gives 50% inhibition. A lower IC50 goes with greater potency.

As to `CCC1=C[C@@H]2[C@H](C1)C[C@]2(CN)CC(=O)O` [MGB, (1R,5S,6S)-6-(aminomethyl)-3-ethyl-bicyclo [3.2.0] hept-3-ene-6-acetic acid], the IC50 stood at 7.3 µM.
